Assay results from patent publication US5675031A, “4-hydroxy-2-cyclopentenone derivatives and anticancer agent and bone formation accelerator containing the same” (Teijin Limited, priority 1992, dated 1997).
≈ marks a conversion by molar mass, not a printed value.

Columns and labels:
L1210 tumor cells = experiment: anticancer activity (growth of L1210 tumor cells, trypan blue staining of surviving cells); type: cell-based; settings: Mus musculus, 48 h, 2.5×10^4 cells/ml, grown for 2 days
Procedure: Measurement of anticancer activity
Tumor cells were grown in an RPMI 1640 medium containing of 10% fetal calf serum.
The compound was dissolved in 99.5% ethanol, adjusted before use so that the final concentration of ethanol was 0.1% or less, and added to the medium.
The control was 0.1% ethanol, and L1210 tumor cells were inoculated in the medium in a concentration of 2.5×10^4 cells/ml and grown for 2 days. The number of surviving cells were measured by trypan blue staining.

[1] = tested on: Human osteoblasts (KK-3, 18PDL); experiment: bone formation activity (Ca, P and alkaline phosphatase in human osteoblasts); type: cell-based; settings: 14 days
Procedure: Measurement of bone formation activity
Human osteoblasts (KK-3, 18PDL) were cultured in an α-MEM containing 10% fetal calf serum. After the growth become stationary, the compound was added in a given concentration in the presence of 2 mM α-glycerophosphate and treated for 14 days. The cell phase was washed with physiological saline, and the alkaline phosphatase activity (ALP) was measured through the absorption of OD415. Then, calcium (Ca) and phosphorus (P) were extracted with a 2N hydrochloric acid and quantitatively determined.

[2] = Table 6, 1.0 × 10^-6, control 0.550 ± 0.040
[3] = Table 6, 1.0 × 10^-6, control 11.00 ± 1.73
[4] = Table 6, 2.5 × 10^-7 M, control 0.550 ± 0.040
[5] = Table 6, 2.5 × 10^-7 M, control 11.00 ± 1.73
[6] = Table 6, 2.5 × 10^-7 M, control 20.00 ± 1.73
[7] = Table 9, 1.0 × 10^-6 M, control 1.15 ± 0.19
[8] = Table 9, 1.0 × 10^-6 M, control 2.17 ± 2.56
[9] = Table 9, 1.0 × 10^-6 M, control 3.83 ± 1.72
[10] = Table 9, 3.3 × 10^-6, control 1.15 ± 0.19
[11] = Table 9, 3.3 × 10^-6, control 2.17 ± 2.56

Molecule `O=C1C=CC(O)(CCCCOc2ccccc2)/C1=C\c1ccncc1` (stereo not shown) has an IC50 (L1210 tumor cells) of 0.021 µg/mL (≈ 0.0626 µM).

`CN(C)c1ccc(C=C2C(=O)C=CC2(O)CCCCOc2ccccc2)cc1` (stereo not shown) was tested, and the IC50 (L1210 tumor cells) was 0.378 µg/mL (≈ 1 µM).

`COC(=O)c1ccc(/C=C2/C(=O)C=CC2(O)CCCCOc2ccccc2)cc1` (stereo not shown) [drawing 207] gave an IC50 (L1210 tumor cells) of 0.014 µg/mL (≈ 0.0357 µM).

Work on `COC(=O)c1ccc(/C=C2/C(=O)C=C(C)C2(O)CCCCOc2ccccc2)cc1` (stereo not shown) [drawing 208] yielded an IC50 (L1210 tumor cells) of 10.8 µg/mL (≈ 26.5 µM).

Work on `COC(=O)c1ccc(/C=C2/C(=O)C(Cl)=CC2(O)CCCCOc2ccccc2)cc1` (stereo not shown) [drawing 209] yielded an IC50 (L1210 tumor cells) of 0.004 µg/mL (≈ 0.00937 µM).

`CN(C)c1ccc(/C=C2/C(=O)C(Cl)=CC2(O)CCCCOc2ccccc2)cc1` (stereo not shown) [drawing 212] showed an IC50 (L1210 tumor cells) of 0.062 µg/mL (≈ 0.151 µM).

`COC(=O)c1ccc(/C=C2/C(=O)C=C[C@@]2(O)CCCCOc2ccccc2)cc1` [drawing 213] was tested, and the IC50 (L1210 tumor cells) was 0.01 µg/mL (≈ 0.0255 µM).

For `COC(=O)c1ccc(/C=C2/C(=O)C=C[C@]2(O)CCCCOc2ccccc2)cc1` [drawing 214], the IC50 (L1210 tumor cells) was 0.026 µg/mL (≈ 0.0663 µM).

`COC(=O)c1ccc(/C=C2/C(=O)C=CC2(O)CCCCOc2ccccc2)cc1` (stereo not shown) [drawing 215] was tested, and the ALP [1, 2] was 0.488 OD415 /dish, the Ca [1, 3] was 47.00 ± 1.00 μg/dish and the ALP [1, 4] was 0.572 ± 0.028 OD415 /dish. For the same molecule, the Ca [1, 5] was 22.67 ± 3.51 μg/dish and the P [1, 6] was 28.33 ± 2.52 μg/dish.

Work on `COC(=O)c1ccc(/C=C2/C(=O)C(Cl)=CC2(O)CCCCOc2ccccc2)cc1` (stereo not shown) [drawing 216] yielded an ALP [1, 2] of 0.0 OD415 /dish, a Ca [1, 3] of 124.50 ± 2.12 μg/dish and an ALP [1, 4] of 0.484 ± 0.078 OD415 /dish. For the same molecule, the Ca [1, 5] was 37.00 ± 1.00 μg/dish and the P [1, 6] was 36.00 ± 1.00 μg/dish.

Molecule `CN(C)c1ccc(/C=C2/C(=O)C(Cl)=CC2(O)CCCCOc2ccccc2)cc1` (stereo not shown) [drawing 217] has a P ([1]; Table 7, 10^-6 M, control 0.17 ± 0.29) of 1.72 ± 0.05 μg/dish, a Ca ([1]; Table 7, 10^-6 M, control 0.33 ± 0.29) of 23.50 ± 3.77 μg/dish and an ALP ([1]; Table 7, 10^-6 M, control 0.826 ± 0.006) of 0.503 OD415 /dish. The P ([1]; Table 7, 10^-7 M, control 0.17 ± 0.29) was 0.33 ± 0.29 μg/dish, the Ca ([1]; Table 7, 10^-7 M, control 0.33 ± 0.29) was 0.0 ± 0 μg/dish and the ALP ([1]; Table 7, 10^-7 M, control 0.826 ± 0.006) was 0.796 ± 0.047 OD415 /dish.

With `COC(=O)c1ccc(/C=C2/C(=O)C=C(C)C2(O)CCCCOc2ccccc2)cc1` (stereo not shown) [drawing 218] the Ca ([1]; Table 8, 10^-4 M, control 0.33 ± 0.58) was 8.133 ± 3.06 μg/dish, the ALP ([1]; Table 8, 10^-4 M, control 1.684 ± 0.068) was 0.697 OD415 /dish and the P ([1]; Table 8, 10^-4 M, control 7.67 ± 0.58) was 50.33 ± 1.53 μg/dish. It also gave a Ca ([1]; Table 8, 10^-5 M, control 0.33 ± 0.58) of 1.00 ± 0.0 μg/dish, an ALP ([1]; Table 8, 10^-5 M, control 1.684 ± 0.068) of 1.538 ± 0.028 OD415 /dish and a P ([1]; Table 8, 10^-5 M, control 7.67 ± 0.58) of 8.33 ± 1.53 μg/dish.

Work on `COC(=O)c1ccc(/C=C2/C(=O)C=C[C@]2(O)CCCCOc2ccccc2)cc1` [drawing 219] yielded an ALP [1, 7] of 0.74 ± 0.06 OD415 /dish, a Ca [1, 8] of 18.00 ± 8.00 μg/dish and a P [1, 9] of 13.00 ± 4.69 μg/dish. For the same molecule, the ALP [1, 10] was 1.79 OD415 /dish and the Ca [1, 11] was 318.50 ± 12.50 μg/dish.

`COC(=O)c1ccc(/C=C2/C(=O)C=C[C@@]2(O)CCCCOc2ccccc2)cc1` [drawing 220] gave an ALP [1, 7] of 0.04 ± 0.01 OD415 /dish, a Ca [1, 8] of 312.17 ± 12.30 μg/dish and a P [1, 9] of 170.33 ± 11.60 μg/dish. For the same molecule, the ALP [1, 10] was 0.03 OD415 /dish and the Ca [1, 11] was 328.00 ± 15.90 μg/dish.
